According to patent US6436918B1, “Steroid sulfatase inhibitors and methods for making and using the same” (Duquesne University of the Holy Ghost, priority 1997, dated 2002):
Read-outs that look alike come from different tables or passages of the source.

Target: T1, recombinant human estrone sulfatase (Homo sapiens, UniProt P08842)
T1 construct: made in house; host or cells: Chinese Hamster Ovary (CHO) cells
T1 sequence (P08842 22-583): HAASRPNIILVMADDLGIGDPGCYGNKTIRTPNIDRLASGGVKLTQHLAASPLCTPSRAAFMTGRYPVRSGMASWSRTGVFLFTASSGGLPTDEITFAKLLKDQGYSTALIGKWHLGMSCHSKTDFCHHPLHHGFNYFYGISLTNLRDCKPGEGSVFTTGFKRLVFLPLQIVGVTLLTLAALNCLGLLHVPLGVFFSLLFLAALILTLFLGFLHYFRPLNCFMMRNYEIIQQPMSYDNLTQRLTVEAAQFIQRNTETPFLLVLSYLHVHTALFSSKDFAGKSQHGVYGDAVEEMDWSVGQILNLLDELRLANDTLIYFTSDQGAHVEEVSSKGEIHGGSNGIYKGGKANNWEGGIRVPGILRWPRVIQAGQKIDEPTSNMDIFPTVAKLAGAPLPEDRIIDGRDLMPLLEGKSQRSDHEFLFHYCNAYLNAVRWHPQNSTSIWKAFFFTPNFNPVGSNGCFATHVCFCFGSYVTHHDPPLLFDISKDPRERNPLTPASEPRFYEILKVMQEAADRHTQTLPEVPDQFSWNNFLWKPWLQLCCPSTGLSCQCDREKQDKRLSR
Assay: in vitro conversion assay: inhibition of conversion of 3H-estrone sulfate to 3H-estrone by estrone sulfatase
Assay type: biochemical
Experimental: The compounds prepared according to the methods of the above Examples were tested for biological activity in inhibiting sulfatase activity using an in vitro conversion assay procedure. As will be appreciated by those skilled in the art, this assay is based on inhibition of the conversion of ^3H-estrone sulfate to ^3H-estrone by the enzyme estrone sulfatase. The final volume of the enzyme assay was 0.15 ml. [6.7-^3H] estrone sulfate (final concentration 3.3 nmole/L; 300,000 dpm/tube); an inhibitor at various concentrations in DMSO and recombinant human estrone sulfatase (33 ng/tube) in phosphate buffered saline, containing 0.25 M sucrose and 0.04 M nicotinamide, pH 7, were added to a 1.5 ml microtube. Recombinant human estrone sulfatase was partially purified from Chinese Hamster Ovary (CHO) cells in which human estrone sulfatase cDNA was transfected. The assay began by the addition of the substrate estrone sulfate. After 60 minutes of incubation at 37° C., 0.5 ml of toluene were added to quench the assay. Control samples with no inhibitor were incubated simultaneously. Blank samples were obtained by incubating without estrone sulfatase. The quenched samples were vortexed for 30 seconds and centrifuged (9,000 rpm for 5 minutes). Two hundred and fifty microliters of toluene were obtained from each quenched sample to determine the amount of product formation. Product formation for samples containing an inhibitor was compared to that of control samples (without inhibitors) run simultaneously. This was reported as percent inhibition of control sample which equals
100× Product formation for sample containing inhibitor Product formation for sample with no inhibitor (control)
Each concentration was tested in duplicate in three separate experiments.

[1] = Table 3 (Example 8; compounds 7, 29d, 29h, 29m), same in vitro conversion assay, read-out: IC50

| SMILES | IC50 [1] [nM] | IC50 [nM] |
| --- | --- | --- |
| CCCNC(=O)[C@H]1CC[C@H]2[C@@H]3CCc4cc(OS(N)(=O)=O)ccc4[C@H]3CC[C@]12C [Compound 7, 17β-(N-Propylcarbamoyl)estra-1,3,5(10)-trien-3-yl sulfamate] | 19 | – |
| CC(C)CNC(=O)[C@H]1CC[C@H]2[C@@H]3CCc4cc(OS(N)(=O)=O)ccc4[C@H]3CC[C@]12C [Compound 29d, 17β-(N-Isobutylcarbamoyl)estra-1,3,5(10)-trien-3-yl sulfamate] | – | 6.5 |
| CC(C)NC(=O)[C@H]1CC[C@H]2[C@@H]3CCc4cc(OS(N)(=O)=O)ccc4[C@H]3CC[C@]12C [Compound 29h, 17β-(N-Isopropylcarbamnoyl)estra-1,3,5(10)-trien-3-yl sulfamate] | 17 | – |
| CCCN(C)C(=O)[C@H]1CC[C@H]2[C@@H]3CCc4cc(OS(N)(=O)=O)ccc4[C@H]3CC[C@]12C [Compound 29m, 17β-(N-methyl-N-Propylcarbamoyl)estra-1,3,5 (10)-trien-3-yl sulfamate] | – | 5.5 |
